Tests used:
[1] = system: DCs; details: LPS stimulation
[2] = system: MAPKs (ERK, p38, and JNK); assay: Phosphorylated MAPKs levels in peritoneal cells isolated from treated mice; type: in vivo, mouse; details: i.p., 45 minutes prior to isolation
Method: After 45 minutes, peritoneal suspensions were obtained by peritoneal lavage as previously described. […] The peritoneal cells were immediately lysed in lysis buffer and performed Immunoblotting as described above.

[3] = system: MAPKs (ERK, p38, and JNK); details: non-stimulated BMMs, time dependent
[4] = system: BMMs; assay: Proinflammatory cytokine production (ELISA) from stimulated bone marrow derived macrophages; type: cell-based, mouse; details: for IL-6 production induced by LPS (Example 5): FIG. 5C
[5] = system: MAPKs (ERK, p38, and JNK); assay: Immunoblotting of MAPKs phosphorylation in stimulated BMMs; type: cell-based, mouse
[6] = system: MKP-1; details: BMMs, within 20 minutes
[7] = system: LPS-induced endotoxin shock; assay: LPS-induced endotoxin shock in mice: survival rate and plasma/serum TNF-α and IL-6; type: in vivo, C57BL/6j mice
[8] = system: ROS (hydroxyl radical, superoxide, H2O2) in BMMs; assay: Intracellular ROS production in LPS-stimulated BMMs (HPF / CM-H2DCFDA fluorescence); type: cell-based, mouse
Method: Invitrogen) detects superoxide, H2O2, and hydroxyl radical. […] After preculture, the cells were exposed to LPS ([…]) for 30 minutes and immediately HPF fluorescence or fluorophore DCF were detected at an excitation wavelength of 485 nm and an emission wavelength of 530 nm with a fluorometric imaging plate reader, Synergy HT (Biotech Instruments, Winooski, Vt.).

[9] = molecular target: T1, p38gamma (Homo sapiens, UniProt P53778); details: cited from earlier work
T1 sequence (P53778 1-367): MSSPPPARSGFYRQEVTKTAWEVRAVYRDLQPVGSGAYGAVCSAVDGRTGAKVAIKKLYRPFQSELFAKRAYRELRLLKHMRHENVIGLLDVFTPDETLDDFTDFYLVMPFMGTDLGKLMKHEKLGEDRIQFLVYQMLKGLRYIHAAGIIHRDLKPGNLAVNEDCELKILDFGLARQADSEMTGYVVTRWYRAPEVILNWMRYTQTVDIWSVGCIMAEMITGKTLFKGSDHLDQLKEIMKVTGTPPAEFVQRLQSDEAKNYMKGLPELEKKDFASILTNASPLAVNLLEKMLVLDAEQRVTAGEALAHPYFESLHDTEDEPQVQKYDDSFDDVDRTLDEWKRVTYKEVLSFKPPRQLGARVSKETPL

[10] = molecular target: T2, p38delta (Homo sapiens, UniProt O15264); details: cited from earlier work
T2 sequence (O15264 1-365): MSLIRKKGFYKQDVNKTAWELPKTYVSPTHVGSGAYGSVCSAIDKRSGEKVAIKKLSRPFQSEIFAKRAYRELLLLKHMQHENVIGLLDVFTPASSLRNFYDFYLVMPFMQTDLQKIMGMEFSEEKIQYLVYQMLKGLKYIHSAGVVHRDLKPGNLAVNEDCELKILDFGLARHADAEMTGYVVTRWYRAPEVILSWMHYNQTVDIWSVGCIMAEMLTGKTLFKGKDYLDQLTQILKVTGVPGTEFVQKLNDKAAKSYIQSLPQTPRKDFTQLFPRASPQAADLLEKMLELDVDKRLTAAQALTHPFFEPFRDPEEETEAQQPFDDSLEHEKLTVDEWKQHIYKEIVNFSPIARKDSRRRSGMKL

[11] = molecular target: p38b (Homo sapiens, UniProt Q15759); details: cited from earlier work
[12] = lethal dose of LPS, treatment i.p., plasma 4 hour after LPS

Chain of p38b (Q15759 whole entry, species assumed): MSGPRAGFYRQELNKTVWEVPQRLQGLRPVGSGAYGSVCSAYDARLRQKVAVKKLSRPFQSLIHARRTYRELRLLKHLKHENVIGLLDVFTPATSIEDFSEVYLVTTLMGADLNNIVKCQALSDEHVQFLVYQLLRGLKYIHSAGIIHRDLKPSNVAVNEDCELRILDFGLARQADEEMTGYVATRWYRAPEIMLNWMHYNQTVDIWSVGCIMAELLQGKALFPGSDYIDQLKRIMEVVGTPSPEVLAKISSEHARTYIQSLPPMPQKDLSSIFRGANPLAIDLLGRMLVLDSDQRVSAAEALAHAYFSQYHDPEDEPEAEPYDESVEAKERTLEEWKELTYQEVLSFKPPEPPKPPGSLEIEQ

[HH] [H2, molecular hydrogen]
IL-6 production [1]: suppressed
IL-12p40 production [1]: suppressed
TNF-α production [1]: suppressed
phosphorylation of MAPKs in peritoneal cells [2]: decreased
H2 concentration at saturation (PBS or culture medium, 25° C.): 780 mM
pH (saturated H2 in water): 7.6
redox potential (ORP level) (saturated H2 in water): −511 mV
basal levels of phosphorylated ERK, p38, and JNK [3]: decreased
IL-6 production ([4]; LPS stimulation): suppressed
IL-12p40 production ([4]; LPS stimulation): suppressed
TNF-α production ([4]; LPS stimulation): suppressed
IL-6 production induced by LPS (Example 5) [4]: down-regulated
IL-6 production induced by PGN [4]: down-regulated
IL-6 production induced by poly(I:C) [4]: down-regulated
TNF-α production induced by poly(I:C) [4]: suppressed
phosphorylation level of MAPKs induced by LPS ([5]; LPS, ERK, p38 and JNK): obviously decreased
level of phosphorylated ERK, LPS-induced ([5]; LPS, FIG. 5E): decreased
PGN-induced phosphorylation of ERK and p38 [5]: blocked
poly(I:C)-induced MAPKs phosphorylation [5]: attenuated
expression of MKP-1 protein [6]: up-regulated
survival rate ([7]; mouse, in vivo): 90%
protection from lethal endotoxin shock ([7]; mouse, in vivo, po): prevented the mice from lethal endotoxin shock
IL-6 production in serum ([7]; oral administration): down-regulation
TNF-a production in serum ([7]; oral administration): down-regulation
LPS-mediated induction of fluorescence from DCF (superoxide, H2O2, or hydroxyl radical) [8]: not affected
LPS-mediated induction of hydroxyl radical (HPF) [8]: suppressed

CC(=O)N[C@@H](CS)C(=O)O [NAC, N-acetyl-L-cysteine, reference compound]
phosphorylation of MAPKs in peritoneal cells [2]: did not reduce
IL-6 production induced by LPS (Example 5) [4]: still inhibited
IL-6 production induced by PGN [4]: did not inhibit
IL-6 production induced by poly(I:C) [4]: did not inhibit
TNF-α production induced by poly(I:C) [4]: not
PGN-induced phosphorylation of ERK and p38 [5]: inhibited little or no
poly(I:C)-induced MAPKs phosphorylation [5]: not
serum IL-6 production [7, 12]: significantly suppressed
serum TNF-α production [7, 12]: significantly suppressed
survival rate ([7]; mouse, in vivo): 20%
survival rate ([7]; mouse, in vivo, ip): 70%
LPS-mediated induction of fluorescence from DCF (superoxide, H2O2, or hydroxyl radical) [8]: remarkably inhibited
LPS-mediated induction of hydroxyl radical (HPF) [8]: suppressed

C[S+]([O-])c1ccc(-c2nc(-c3ccncc3)c(-c3ccc(F)cc3)[nH]2)cc1 (stereo not drawn) [SB203580]
sensitivity to inhibition [9]: unaffected
sensitivity to inhibition [10]: unaffected
sensitivity to inhibition [11]: sensitive

Source: patent US8992998B2, “MAPK inhibition by H2” (priority 2010, dated 2015)
